Converted amounts (≈) assume the structure as drawn. A value given as a limit tells only on which side of the number the result lay.

We go through two molecules from patent US11312720B2, “Hydrochloride salt of 2-((3R,4S)-1-(5-(4-chloro-3,5-difluorophenyl)-7-((2-fluoro-6-methylphenyl)(methyl)amino)pyrazolo[1,5-a]pyrimidine-2-carbonyl)-3-methoxypiperidin-4-yl) acetic acid and crystals thereof” (Eisai R&D Management Co., Ltd., priority 2018, dated 2022).

The nature of data set [1]: Solubility test (24 h shaking at room temperature, HPLC). The data set is classed as physicochemical. To be noted: thermodynamic from solid. The method, then: About 1 mg of the test compound was weighed into a test tube and 1 mL of a test solution was added. For the test solutions, a 0.1 M hydrochloric acid aqueous solution (pH 1) and Britton-Robinson buffers (pH 3, pH 5 and pH 7; ionic strength 0.3) were used. The test solution was shaken at room temperature for 24 hours and subsequently filtered through a filter. A concentration of the test compound in the filtrate was measured by high-performance liquid chromatography to evaluate solubility. […] Additionally, high-performance liquid chromatography (HPLC) conditions are shown below.
Column; YMC-Pack Pro C18, 4.6 mm×35 mm, 3 μm
Mobile phase A; water:acetonitrile:70% perchloric acid=900:100:1
Mobile phase B; water:acetonitrile:70% perchloric acid=100:900:1
Column temperature; 40° C.
Detection wavelength; 275 nm

Data set [2] is described as follows: Dissolution test by the paddle method in FaSSIF. The data set is classed as physicochemical. To be noted: FaSSIF pH 6.5, 37° C., 50 rpm, about 10 mg in 100 mL. The procedure:
The dissolution test was carried out by the paddle method using FaSSIF (an aqueous solution containing 3 mM sodium taurocholate, 0.75 mM lecithin, 29 mM sodium dihydrogen phosphate and 103 mM potassium chloride and adjusted to pH 6.5 by adding dropwise a sodium hydroxide aqueous solution) as the test solution. About 10 mg of the test compound was added to 100 mL of the test solution. Under the condition at 37° C. and 50 rpm, the test solution was stirred using a paddle. After the start of the stirring, 1 mL of the test solution was collected at each of the time points shown in Table 6 and filtered through a filter. A concentration of the test compound in the filtrate was measured by high-performance liquid chromatography (HPLC conditions were the same conditions described in Test Example 2).

Setting [3] is: aqueous buffer, pH 3, Britton-Robinson buffer.
Setting [4] is: aqueous buffer, pH 5, Britton-Robinson buffer.
[5] abbreviates: aqueous buffer, pH 7, Britton-Robinson buffer.
Setting [6] is: simulated gastric fluid, pH 1, 0.1M hydrochloric acid aqueous solution.

Broadly, the solubility is how much of the substance goes into solution per volume. In the case of `CO[C@H]1CN(C(=O)c2cc3nc(-c4cc(F)c(Cl)c(F)c4)cc(N(C)c4c(C)cccc4F)n3n2)CC[C@H]1CC(=O)O.Cl` [Example 1, 2-((3R,4S)-1-(5-(4-chloro-3,5-difluorophenyl)-7-((2-fluoro-6-methylphenyl)(methyl)amino)pyrazolo[1,5-a]pyrimidine-2-carbonyl)-3-methoxypiperidin-4-yl)acetic Acid Hydrochloride], the solubility at 24 h was less than 1 µg/mL in data set [1] (setting [3]), 1 µg/mL in data set [1] (setting [4]), greater than 1200 µg/mL in data set [1] (setting [5]) and 4 µg/mL in data set [1] (setting [6]). For the same molecule, the “Concentration of Test compound” value amounted to 0.030 mg/mL in data set [2] (10 Min); 0.038 mg/mL in data set [2] (20 Min); 0.103 mg/mL in data set [2] (24 Hours); 0.046 mg/mL in data set [2] (30 Min); 0.051 mg/mL in data set [2] (40 Min); 0.061 mg/mL in data set [2] (60 Min). Besides, the “Concentration of Test compound” value in data set [2] (90 Min) came to 0.072 mg/mL; in data set [2] (120 Min), 0.078 mg/mL; in data set [2] (180 Min), 0.085 mg/mL; in data set [2] (240 Min), 0.087 mg/mL.
For `CO[C@H]1CN(C(=O)c2cc3nc(-c4cc(F)c(Cl)c(F)c4)cc(N(C)c4c(C)cccc4F)n3n2)CC[C@H]1CC(=O)O` [Reference Example 4, 2-((3R,4S)-1-(5-(4-chloro-3,5-difluorophenyl)-7-((2-fluoro-6-methylphenyl)(methyl)amino)pyrazolo[1,5-a]pyrimidine-2-carbonyl)-3-methoxypiperidin-4-yl)acetic Acid], the solubility at 24 h in data set [1] (setting [3]) is less than 1 µg/mL; in data set [1] (setting [4]), less than 1 µg/mL; in data set [1] (setting [5]), 13 µg/mL (≈ 21.6 µM); in data set [1] (setting [6]), less than 1 µg/mL. Further, the “Concentration of Test compound” value in data set [2] (10 Min) was found to be 0.004 mg/mL; in data set [2] (20 Min), 0.007 mg/mL; in data set [2] (24 Hours), 0.018 mg/mL; in data set [2] (30 Min), 0.008 mg/mL; in data set [2] (40 Min), 0.009 mg/mL; in data set [2] (60 Min) it was 0.010 mg/mL. In addition, the “Concentration of Test compound” value is 0.011 mg/mL in data set [2] (90 Min), 0.011 mg/mL in data set [2] (120 Min), 0.012 mg/mL in data set [2] (180 Min) and 0.012 mg/mL in data set [2] (240 Min).
